The values that follow come from patent publication US6518423B1, “Benzopiperidine derivatives” (Eisai Co., Ltd., priority 1996, dated 2003).

SMILES strings stand for the structures. Bounds are passed on as bounds.

In turn, `Brc1nccn1Cc1ccc2c(c1)Nc1nccnc1S2` registered a melting point of 256 to 258 °C.
Compound `c1ccc(Cc2nccn2Cc2ccc3c(c2)Nc2nccnc2S3)nc1` returned a melting point of 216 to 219 °C.
Regarding `CCOC(=O)c1c(C)ncn1Cc1ccc2c(c1)Nc1nccnc1S2`, the melting point is 194 to 196 °C.
As for `O=C(O)c1ccc(-c2cn(Cc3ccc4c(c3)Nc3nccnc3S4)cn2)cc1`, the figure is 264 to 266 °C.
Regarding `CC/C(=C\c1ncn(Cc2ccc3c(c2)Nc2nccnc2S3)c1C)C(=O)O`, the melting point is > 288 °C (dec.).
Take `CCCCCCCCC/C(=C\c1ncn(Cc2ccc3c(c2)Nc2nccnc2S3)c1C)C(=O)O`: the melting point lay within 194 to 197 °C.
`O=C(O)/C=C/c1nccn1Cc1ccc2c(c1)Nc1nccnc1S2` displayed a melting point of 243 to 244 °C.
As for `CS(=O)(=O)Nc1ccc(-c2cn(Cc3ccc4c(c3)Nc3nccnc3S4)cn2)cc1`, the figure is 253 to 255 °C; as for `CC(=O)Nc1ccc(-c2cn(Cc3ccc4c(c3)Nc3nccnc3S4)cn2)cc1`, 261 to 263 °C; as for `Cc1oncc1C(=O)NCCc1cn(Cc2ccc3c(c2)Nc2nccnc2S3)cn1`, 165 to 167 °C.
As for `Cc1c(C(C)(C)O)ncn1Cc1ccc2c(c1)Nc1nccnc1S2`, the figure is 264 to 266 °C; as for `c1cnn(Cc2ccc3c(c2)Nc2nccnc2S3)c1`, 211 to 212 °C.
The same measure for `c1cnc2c(c1)ncn2Cc1ccc2c(c1)Nc1nccnc1S2`: 249 to 251 °C; for `C/C(=C\C1C2(C)CCCC1(C)CN(Cc1ccc3c(c1)Nc1nccnc1S3)C2)C(=O)O` (centres unmarked): 249 to 251 °C; for `O=C(O)C(F)C1C2CCCC1CN(Cc1ccc3c(c1)Nc1nccnc1S3)C2` (centres unmarked): 185 to 187 °C.
`OC(c1ccc2c(c1)Nc1nccnc1S2)c1nccs1` (centres unmarked) displayed a melting point of 110 to 114 °C.
With `OC(c1ccc2c(c1)Nc1nccnc1S2)c1cc(Br)ccc1F` (centres unmarked), the melting point lay within 202 to 203 °C.
The same measure for `OC(C#Cc1ccccc1)c1ccc2c(c1)Nc1nccnc1S2` (centres unmarked): 192 to 194 °C; for `CCCCC#CC(O)c1ccc2c(c1)Nc1nccnc1S2` (centres unmarked): 116 to 118 °C.
The same measure for `NS(=O)(=O)c1ccc(CNCc2ccc3c(c2)Nc2nccnc2S3)cc1`: 210 to 212 °C.
As to `CN(CCCCCC(=O)O)Cc1ccc2c(c1)Nc1nccnc1S2`, the melting point is 191 to 193 °C.
The same measure for `O=C(Nc1ccccc1)c1ccc2c(c1)Nc1nccnc1S2`: 281 to 282 °C; for `CN(C)CCCNC(=O)Cc1ccc2c(c1)Nc1nccnc1S2`: 145 to 148 °C; for `CCCCNC(=O)OCc1ccc2c(c1)Nc1nccnc1S2`: 169 to 171 °C.
The same measure for `Cc1ncnc2c1ncn2Cc1ccc2c(c1)Nc1nccnc1S2`: 276 to 278 °C; for `Cc1nc2c(nc(C)n2Cc2ccc3c(c2)Nc2nccnc2S3)c(=O)[nH]1`: 206 to 211 °C.
The same measure for `C[C@@H]1CN(c2ncnc3c2ncn3Cc2ccc3c(c2)Nc2nccnc2S3)C[C@H](C)O1`: 227 to 229 °C; for `CN1CCN(c2ncnc3c2ncn3Cc2ccc3c(c2)Nc2nccnc2S3)CC1`: 197 to 202 °C.
`N#CN=C(N)c1ncnc2c1ncn2Cc1ccc2c(c1)Nc1nccnc1S2` came in with a melting point above 290 °C.
As for `N#Cc1ccc2c(c1)Nc1nccnc1S2`, the figure is 263 to 264 °C; as for `NC(Cc1ccc2c(c1)Nc1nccnc1S2)=NO`, 252 to 254 °C; as for `CCOC(=O)C(C)CCC1CCN(C(=N)Cc2ccc3c(c2)Nc2nccnc2S3)CC1.Cl` (centres unmarked), 219 to 220 °C.
`CN(C)S(=O)(=O)NC1CCN(C(=N)Cc2ccc3c(c2)Nc2nccnc2S3)CC1.Cl` had a melting point of 215 to 218 °C.
As for `CS(=O)(=O)/N=C/N1CCN(C(=N)Cc2ccc3c(c2)Nc2nccnc2S3)CC1.Cl`, the figure is 215 to 218 °C.
The same measure for `CN(C)C(Cc1ccc2c(c1)Nc1nccnc1S2)=NC#N`: 247 to 249 °C (dec.).
As for `N#CN=C(Cc1ccc2c(c1)Nc1nccnc1S2)NCCCn1ccnc1`, the figure is 205 to 208 °C; as for `C(=N\c1ccccn1)/NCc1ccc2c(c1)Nc1nccnc1S2`, 137 to 142 °C.
With `CS(=O)(=O)/N=C(\N)NCc1ccc2c(c1)Nc1nccnc1S2`, the melting point lay within 244 to 245 °C.
As for `CC(=O)NC1CCN(Cc2ccc3c(c2)Nc2nccnc2S3)CC1`, the figure is 212 to 214 °C; as for `NC(=O)C1CCCCN1Cc1ccc2c(c1)Nc1nccnc1S2` (centres unmarked), 209 to 211 °C; as for `COC(=O)CNS(=O)(=O)NC1CCN(Cc2ccc3c(c2)Nc2nccnc2S3)CC1`, 194 to 196 °C.
As for `CS(=O)(=O)/N=C/NC1CCN(Cc2ccc3c(c2)Nc2nccnc2S3)CC1`, the figure is 119 to 122 °C; as for `CS(=O)(=O)NC1CCN(Cc2ccc3c(c2)Nc2nccnc2O3)CC1`, 241 to 243 °C; as for `CNS(=O)(=O)NC1CCN(Cc2ccc3c(c2)Nc2ncccc2S3)CC1`, 216 to 218 °C.
The same measure for `C1=NCCCN1Cc1ccc2c(c1)Nc1nccnc1S2.Cl`: 238 °C (dec.); for `N#CN=CN1CCN(Cc2ccc3c(c2)Nc2nccnc2S3)CC1`: 238 to 241 °C (dec.).
In the case of `O=C1CCN(Cc2ccc3c(c2)Nc2nccnc2S3)CC1`, the melting point fell in the range of 186 to 188 °C.
As for `c1ccc2c(c1)CCCN2Cc1ccc2c(c1)Nc1nccnc1S2`, the figure is 208 to 210 °C; as for `N=C(N)N1CCN(Cc2ccc3c(c2)Nc2nccnc2S3)CC1`, 265 to 271 °C (dec.).
In the case of `O=C(O)CCCN1CCC(NCc2ccc3c(c2)Nc2nccnc2S3)CC1`, the melting point lay within 121 to 124 °C.
As for `CC(CCC1CCN(Cc2ccc3c(c2)Nc2ncccc2S3)CC1)C(=O)O` (centres unmarked), the figure is 113 to 115 °C; as for `CC(CCC1CCN(Cc2ccc3c(c2)Nc2nccnc2O3)CC1)C(=O)O` (centres unmarked), 238 to 240 °C; as for `CC(C)(CC(=O)O)C1CCN(Cc2ccc3c(c2)Nc2nccnc2S3)CC1`, 272 to 275 °C.
As for `O=C(O)C1CCN(S(=O)(=O)NC2CCN(Cc3ccc4c(c3)Nc3nccnc3S4)CC2)CC1`, the figure is 54 to 55 °C.
The same measure for `O=C(O)CNS(=O)(=O)NC1CCN(Cc2ccc3c(c2)Nc2nccnc2S3)CC1`: 195 to 196 °C; for `CCOC1(CC(=O)O)CC2(CCN(Cc3ccc4c(c3)Nc3nccnc3S4)CC2)C1`: 226 to 227 °C.
With `CC(C(=O)O)=C1CC2(CCN(Cc3ccc4c(c3)Nc3nccnc3S4)CC2)C1`, the melting point fell in the range of 251 to 252 °C.
`O=C(O)C1CC2(CCN(Cc3ccc4c(c3)Nc3nccnc3S4)CC2)O1` (centres unmarked) registered a melting point of 178 to 180 °C.
The same measure for `O=C(O)COCC1CCN(Cc2ccc3c(c2)Nc2nccnc2S3)CC1`: 146 to 148 °C.
As for `CC(CCC1CCN(Cc2ccc3c(c2)Sc2nccnc2N3)CC1)C(=O)O` (centres unmarked), the figure is 221 to 222 °C; as for `O=C(O)C1CCC2(CC1)CCN(Cc1ccc3c(c1)Nc1nccnc1S3)C2` (centres unmarked), 146 °C (dec.); as for `O=C(O)C(O)C1CCN(Cc2ccc3c(c2)Nc2nccnc2S3)CC1` (centres unmarked), 98 to 99 °C.
The compound `O=C(O)C1=CCCN(Cc2ccc3c(c2)Nc2nccnc2S3)C1` returned a melting point of 178 to 180 °C.
`CC(CC(=O)O)C1CCN(Cc2ccc3c(c2)Nc2nccnc2S3)CC1` (centres unmarked): the melting point fell in the range of 218 to 220 °C.
The same measure for `O=C(O)C1(c2ccc(O)cc2)CCN(Cc2ccc3c(c2)Nc2nccnc2S3)CC1`: 260 to 262 °C.
The same measure for `O=C(O)CC1CCN(Cc2ccc3c(c2)Nc2nccnc2S3)CC1`: 142 to 146 °C; for `CC(C)(O)C(=O)CC(SCC(=O)O)C1CCN(Cc2ccc3c(c2)Nc2nccnc2S3)CC1` (centres unmarked): 130 to 132 °C.
The compound `C=CCN1c2ccccc2Nc2nccnc21` came in with a melting point of 173 to 175 °C.
On to `CC(C)(C)OC(=O)CN1c2ccccc2Nc2nccnc21`, for which the melting point was 199 to 201 °C.
As for `c1ccc(CN2c3ccccc3Nc3nccnc32)cc1`, the figure is 194 to 196 °C; as for `CCOC(=O)c1ccc2c(c1)Nc1nccnc1N2C`, 239 to 242 °C.
As for `CN1c2ccc(I)cc2Nc2nccnc21`, the figure is above 275 °C; as for `O=C(O)CN1c2ccccc2Nc2nccnc21`, 210 to 212 °C; as for `CN1c2cc(O)ccc2Nc2nccnc21`, above 275 °C.
Compound `CCCN1c2ccccc2Nc2nccnc21` returned a melting point of 190 to 192 °C.
In turn, `CS(=O)(=O)NCCN1c2ccccc2Nc2nccnc21` had a melting point of 218 to 222 °C.
With `CCOC(=O)CC(=O)c1ccc2c(c1)Nc1nccnc1N2C`, the melting point was in the range of 88 to 89 °C.
In turn, `c1ccc2ncc(NCc3ccc4c(c3)Nc3nccnc3S4)cc2c1` showed a melting point of 160 to 164 °C.
With `c1cncc(CNCc2ccc3c(c2)Nc2nccnc2S3)c1`, the melting point was in the range of 104 to 106 °C.
The same measure for `c1ccc(CNc2ccc(NCc3ccc4c(c3)Nc3nccnc3S4)cn2)cc1`: 208 to 211 °C; for `CC(C)Oc1ccc(NCc2ccc3c(c2)Nc2nccnc2S3)cn1`: 145 to 148 °C.
As for `O=C(O)COCCC1C2CCCC1CN(Cc1ccc3c(c1)Nc1nccnc1S3)C2` (centres unmarked), the figure is 108 to 113 °C; as for `OCCc1ccc(NCc2ccc3c(c2)Nc2nccnc2S3)cn1`, 138 to 142 °C; as for `OCCSc1ccc(NCc2ccc3c(c2)Nc2nccnc2S3)cn1`, 138 to 142 °C.
Consider `O=C(O)COc1ccc(NCc2ccc3c(c2)Nc2nccnc2S3)cn1`, for which the melting point was 170 °C.
The same measure for `O=C(O)CSc1ccc(NCc2ccc3c(c2)Nc2nccnc2S3)cn1`: 114 to 116 °C; for `Brc1ccc(NCc2ccc3c(c2)Nc2nccnc2S3)nc1`: 265 to 268 °C.
In the case of `CCNC(=O)N(Cc1ccc2c(c1)Nc1nccnc1S2)c1cccnc1`, the melting point was in the range of 210 to 212 °C.
`O=S(=O)(c1ccccc1)N(Cc1ccc2c(c1)Nc1nccnc1S2)c1cccnc1` gave a melting point of 205 to 260 °C.
